From ChEMBL document CHEMBL1151923, “Synthesis and evaluation of a netropsin-proximicin-hybrid library for DNA binding and cytotoxicity” (2009)

What was measured:
AGS = assay: Cytotoxicity against human AGS cells after 48 hrs by sulforhodamine B assay; type: functional
MCF7 = assay: Cytotoxicity against human MCF7 cells after 48 hrs by sulforhodamine B assay; type: functional; conditions: MCF7, 48 h
HepG2 = assay: Cytotoxicity against human HepG2 cells after 48 hrs by sulforhodamine B assay; type: functional; conditions: HepG2, 48 h
Nucleic Acid [1] = assay: Binding affinity to DNA minor groove region CATGGCCATG assessed as change in melting temperature at 6 uM by thermal denaturation study; type: nucleic-acid assay
Nucleic Acid [2] = assay: Binding affinity to DNA minor groove region CGCAAATTTGCG assessed as melting temperature at 6 uM by thermal denaturation study; type: nucleic-acid assay
Nucleic Acid [3] = assay: Binding affinity to DNA minor groove region CATGGCCATG assessed as melting temperature at 6 uM by thermal denaturation study; type: nucleic-acid assay
Nucleic Acid [4] = assay: Binding affinity to DNA minor groove region CGCAAATTTGCG assessed as change in melting temperature at 6 uM by thermal denaturation study; type: nucleic-acid assay

| SMILES | GI50 (AGS) | GI50 (MCF7) | GI50 (HepG2) | ΔTm (Nucleic Acid [1]) | Tm (Nucleic Acid [2]) | Tm (Nucleic Acid [3]) | ΔTm (Nucleic Acid [4]) |
| --- | --- | --- | --- | --- | --- | --- | --- |
| COC(=O)Nc1cc(C(=O)Nc2cc(C(=O)NCCc3c[nH]c4ccc(O)cc34)n(C)c2)n(C)c1 | > 20 µg/mL | > 20 µg/mL | > 20 µg/mL |  |  |  |  |
| Cn1cc(NC(=O)c2cc(NC(=O)OCC3c4ccccc4-c4ccccc43)cn2C)cc1C(=O)NCCc1c[nH]c2ccccc12 | > 31.9 µM | 18.8 µM | 4.6 µM |  |  |  |  |
| COC(=O)Nc1cc(C(=O)Nc2cc(C(=O)O)n(C)c2)n(C)c1 | > 20 µg/mL | > 20 µg/mL | > 20 µg/mL |  |  |  |  |
| Cn1cc(NC(=O)c2cc(NC(=O)c3cc(NC=O)cn3C)cn2C)cc1C(=O)NCCC(=N)N |  |  |  | 0 °C | 65 °C | 45 °C | 16 °C |
| Cn1cc(NC(=O)c2cc(NC(=O)CNC(=N)N)cn2C)cc1C(=O)NCCC(=N)N |  |  |  | 0 °C | 69 °C | 48 °C | 18 °C |
| Cn1cc(NC(=O)c2cc(NC(=O)OCc3ccccc3)cn2C)cc1C(=O)NCCc1c[nH]c2ccccc12 | 9.3 µM | 10.8 µM | 5.6 µM | 23 °C | 65 °C | 70 °C | 17 °C |
| COC(=O)Nc1cc(C(=O)Nc2cc(C(=O)NCCc3ccc(O)c(O)c3)n(C)c2)n(C)c1 | > 20 µg/mL | > 20 µg/mL | > 20 µg/mL |  |  |  |  |
| COC(=O)Nc1cc(C(=O)Nc2cc(C(=O)NCCC(C)C)n(C)c2)n(C)c1 | > 20 µg/mL | > 20 µg/mL | > 20 µg/mL |  |  |  |  |
| Cn1cc(NC(=O)c2cc(NC(=O)C(C)(C)C)cn2C)cc1C(=O)NCCc1c[nH]c2ccccc12 | 23.5 µM | 17.4 µM | > 40.9 µM |  |  |  |  |
| C=CCOC(=O)Nc1cc(C(=O)Nc2cc(C(=O)NCCc3c[nH]c4ccccc34)n(C)c2)n(C)c1 | 1.7 µM | 15.4 µM | 14.3 µM |  |  |  |  |
| COC(=O)Nc1coc(C(=O)Nc2coc(C(N)=O)c2)c1 [PROXIMICIN A] | 2 µM | 24.6 µM | 2.8 µM |  |  |  |  |
| CC(=O)Nc1cc(C(=O)Nc2cc(C(=O)NCCc3c[nH]c4ccccc34)n(C)c2)n(C)c1 | > 20 µg/mL | > 20 µg/mL | > 20 µg/mL |  |  |  |  |
| COC(=O)Nc1coc(C(=O)Nc2coc(C(=O)NCCc3ccc(O)cc3)c2)c1 [PROXIMICIN B] | 3.6 µM | 12.1 µM | 23 µM |  |  |  |  |
| COC(=O)Nc1cc(C(=O)Nc2cc(C(=O)NCCc3cnc[nH]3)n(C)c2)n(C)c1 | > 20 µg/mL | > 20 µg/mL | > 20 µg/mL |  |  |  |  |
| COC(=O)Nc1cc(C(=O)Nc2cc(C(=O)NCCCC(=O)O)n(C)c2)n(C)c1 | > 20 µg/mL | > 20 µg/mL | > 20 µg/mL |  |  |  |  |
| COC(=O)Nc1cc(C(=O)Nc2cc(C(=O)NCCc3ccccc3)n(C)c2)n(C)c1 | > 20 µg/mL | > 20 µg/mL | > 20 µg/mL |  |  |  |  |
| Cn1cc(NC(=O)c2cc(NC(=O)OCC(Cl)(Cl)Cl)cn2C)cc1C(=O)NCCc1c[nH]c2ccccc12 | 10 µM | 10.3 µM | 4 µM | 21 °C | 59 °C | 68 °C | 11 °C |
| COC(=O)Nc1cc(C(=O)Nc2cc(C(=O)NC(Cc3c[nH]c4ccccc34)C(=O)O)n(C)c2)n(C)c1 (configuration not stated) | > 20 µg/mL | > 20 µg/mL | > 20 µg/mL |  |  |  |  |
| Cn1cc(NC(=O)c2cc(NC(=O)Nc3ccccc3)cn2C)cc1C(=O)NCCc1c[nH]c2ccccc12 | 16.8 µM | 19.7 µM | 14.3 µM | 0 °C | 53 °C | 45 °C | 6 °C |
| Cn1cc(NC(=O)c2cc(NC(=O)NCc3ccccc3)cn2C)cc1C(=O)NCCc1c[nH]c2ccccc12 | > 20 µg/mL | > 20 µg/mL | > 20 µg/mL |  |  |  |  |
| COC(=O)Nc1coc(C(=O)Nc2coc(C(=O)NCCc3c[nH]c4ccccc34)c2)c1 [PROXIMICIN C] | 0.6 µM | 20.6 µM | 1.8 µM |  |  |  |  |
| COC(=O)Nc1cc(C(=O)Nc2cc(C(=O)NCCc3c[nH]c4ccccc34)n(C)c2)n(C)c1 | 17.7 µM | 24.9 µM | 21.6 µM |  |  |  |  |
| COC(=O)Nc1cc(C(=O)Nc2cc(C(=O)OCCc3ccccc3)n(C)c2)n(C)c1 | 2.8 µM | 13 µM | 2 µM | 0 °C | 71 °C | 47 °C | 25 °C |
